Source: ChEMBL document CHEMBL1201862, “PubChem BioAssay data set” (2004)
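Values below derive from 48-hour exposures of cells grown in 96-well plates, with endpoints linearly interpolated between the two concentrations bracketing the appropriate inhibition level. GI50: concentration for 50% inhibition of growth.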 The source made the active and inactive calls. Cut-off read from the data, not from the text of the source: active = GI50 up to about 1.1 µM and inactive = higher. Where a SMILES comes first, the peptide text is derived from it. The star is where a group is joined. Cbz = O=C(OCc1ccccc1)*; Bn = c1ccc(C*)cc1

Key:
Test in all cases: NCI-60 cell line screen, 48 h
[1] = tested on: ACHN
[2] = tested on: COLO 205
[3] = tested on: DMS-114
[4] = tested on: EKVX
[5] = tested on: HCC 2998
[6] = tested on: HCT-15
[7] = tested on: IGROV-1
[8] = tested on: M14
[9] = tested on: NCI-H522
[10] = tested on: OVCAR-4
[11] = tested on: RXF 393
[12] = tested on: SK-MEL-28
[13] = tested on: SK-MEL-5
[14] = tested on: SK-OV-3
[15] = tested on: SN12C
[16] = tested on: SNB-19
[17] = tested on: SNB-75
[18] = tested on: SW-620
[19] = tested on: M19-MEL
[20] = tested on: MDA-MB-231

Row | SMILES | GI50 [1] | GI50 [2] | GI50 [3] | GI50 [4] | GI50 [5] | GI50 [6] [µM] | GI50 [7] | GI50 [8] | GI50 [9] | GI50 [10] | GI50 [11] | GI50 [12] | GI50 [13] | GI50 [14] | GI50 [15] | GI50 [16] | GI50 [17] | GI50 [18] | GI50 [19] | GI50 [20]
1 | CC1=C(C(=O)Nc2cccc(Cl)c2)C(c2ccc([N+](=O)[O-])cc2)C(C(=O)Nc2cccc(Cl)c2)=C(C)N1 | 25.1 µM (inactive) | 34.5 µM (inactive) | 21.2 µM (inactive) | 33.3 µM (inactive) | 17.9 µM (inactive) | 23.7 | 26.5 µM (inactive) | 16.6 µM (inactive) | 26.3 µM (inactive) | 20.7 µM (inactive) | 19.5 µM (inactive) | 25.3 µM (inactive) | 17.5 µM (inactive) | 11.9 µM (inactive) | 22.3 µM (inactive) | 37.2 µM (inactive) | 10.7 µM (inactive) | > 10 µM (inactive) |  | 
2 | OCc1ccccc1C1CSCSC1 | > 100 µM (inactive) |  | > 100 µM (inactive) |  |  | > 100 |  |  | > 100 µM (inactive) | > 100 µM (inactive) | > 100 µM (inactive) | > 100 µM (inactive) | > 100 µM (inactive) | > 100 µM (inactive) | > 100 µM (inactive) |  | > 100 µM (inactive) | > 100 µM (inactive) | > 100 µM (inactive) | 
3 | COc1ccc(Nc2nc3ccccc3nc2-c2cccs2)cc1 | > 100 µM (inactive) | > 100 µM (inactive) | 92.9 µM (inactive) | > 100 µM (inactive) | 75 µM (inactive) | > 100 | > 100 µM (inactive) | 47.1 µM (inactive) | 59.4 µM (inactive) | > 100 µM (inactive) | > 100 µM (inactive) | > 100 µM (inactive) | 65.3 µM (inactive) | 40.5 µM (inactive) | > 100 µM (inactive) | > 100 µM (inactive) | 28.6 µM (inactive) | > 100 µM (inactive) |  | 
4 | CCCCOC(=O)NC(Nc1ccc(S(N)(=O)=O)cc1)(C(F)(F)F)C(F)(F)F | > 100 µM (inactive) |  |  | > 100 µM (inactive) | > 100 µM (inactive) | > 100 |  | > 100 µM (inactive) | > 100 µM (inactive) |  | > 100 µM (inactive) | > 100 µM (inactive) |  | > 100 µM (inactive) | > 100 µM (inactive) | > 100 µM (inactive) | > 100 µM (inactive) |  |  | > 100 µM (inactive)
5 | COc1ccc(N2C(=O)c3c4c(c5c([nH]c6ncccc65)c3C2=O)CCC(C(C)(C)C)C4)cc1 (stereo not given) | 40.6 µM (inactive) | > 100 µM (inactive) |  | > 100 µM (inactive) | > 100 µM (inactive) | > 100 | > 100 µM (inactive) | > 100 µM (inactive) | 67.3 µM (inactive) | > 100 µM (inactive) | 34.6 µM (inactive) | > 100 µM (inactive) | > 100 µM (inactive) | 40.6 µM (inactive) | > 100 µM (inactive) | 65.3 µM (inactive) | 16.8 µM (inactive) | > 100 µM (inactive) |  | > 100 µM (inactive)
6 | CCOC(=O)/C(=N/Nc1ccccc1)N1C(=S)N(C)N=C(C)C=C1S | > 100 µM (inactive) | > 100 µM (inactive) |  | > 100 µM (inactive) | > 100 µM (inactive) | > 100 | > 100 µM (inactive) | > 100 µM (inactive) | 27 µM (inactive) | > 100 µM (inactive) | 0.465 µM (active) | > 100 µM (inactive) | > 100 µM (inactive) | > 100 µM (inactive) | > 100 µM (inactive) | > 100 µM (inactive) | 10 µM (inactive) | > 100 µM (inactive) |  | 43.9 µM (inactive)
7 | CC1(c2nc3ccccc3[nH]2)CCC(CO)C(C)(C)O1 (stereo not given) | > 100 µM (inactive) | > 100 µM (inactive) |  | > 100 µM (inactive) | > 100 µM (inactive) | > 100 | > 100 µM (inactive) | > 100 µM (inactive) | > 100 µM (inactive) | > 100 µM (inactive) | > 100 µM (inactive) | > 100 µM (inactive) | > 100 µM (inactive) | > 100 µM (inactive) | > 100 µM (inactive) | > 100 µM (inactive) | > 100 µM (inactive) | > 100 µM (inactive) |  | > 100 µM (inactive)
8 | CC(C)(C)c1cc(C(=O)/C=C/c2ccc(C(=O)O)cc2)cc(C(C)(C)C)c1 | 4 µM (inactive) | 2.12 µM (inactive) |  | 3.19 µM (inactive) | 1.82 µM (inactive) | 1.91 | 3.8 µM (inactive) | 1.5 µM (inactive) | 4.34 µM (inactive) | 6.14 µM (inactive) | 1.5 µM (inactive) | 2.38 µM (inactive) | 3.99 µM (inactive) | 2.87 µM (inactive) | 2.11 µM (inactive) | 2.36 µM (inactive) | 0.885 µM (active) | 3.42 µM (inactive) |  | 3.87 µM (inactive)
9 | O=C(/C(=C/c1ccc(O)cc1)c1ccccc1)c1ccccc1 | 16.1 µM (inactive) | 17.5 µM (inactive) | 11.5 µM (inactive) | 20 µM (inactive) | 17.4 µM (inactive) | 18 | 18.7 µM (inactive) | 17.1 µM (inactive) | 15.2 µM (inactive) | 21.9 µM (inactive) |  | 17.9 µM (inactive) | 15 µM (inactive) | 20.8 µM (inactive) | 18.4 µM (inactive) |  | 16.7 µM (inactive) | 18 µM (inactive) | 18.4 µM (inactive) | 
10 | Cc1ccc(S(=O)(=O)NCCSCCNS(=O)(=O)c2ccc(C)cc2)cc1 | > 100 µM (inactive) | > 100 µM (inactive) |  |  | > 100 µM (inactive) | > 100 |  | > 100 µM (inactive) | > 100 µM (inactive) | > 100 µM (inactive) | > 100 µM (inactive) | > 100 µM (inactive) | > 100 µM (inactive) | > 100 µM (inactive) | > 100 µM (inactive) | > 100 µM (inactive) | > 100 µM (inactive) | > 100 µM (inactive) |  | > 100 µM (inactive)
11 | C1CCC(OCc2nnn3c2CCC3)OC1 (stereo not given) | > 100 µM (inactive) |  |  | > 100 µM (inactive) | > 100 µM (inactive) | > 100 | > 100 µM (inactive) | > 100 µM (inactive) | > 100 µM (inactive) | > 100 µM (inactive) | > 100 µM (inactive) | > 100 µM (inactive) | > 100 µM (inactive) | > 100 µM (inactive) | > 100 µM (inactive) |  | > 100 µM (inactive) | > 100 µM (inactive) | > 100 µM (inactive) | 
12 | CCOC(=O)C1(Cc2ccc3ccccc3c2)CCCCC(=O)N1 (stereo not given) | 67.5 µM (inactive) | 39.1 µM (inactive) | 18.6 µM (inactive) | 54.8 µM (inactive) | 8.67 µM (inactive) | 28.8 | 57 µM (inactive) | 39.3 µM (inactive) |  | 36.1 µM (inactive) | > 100 µM (inactive) | 41 µM (inactive) |  | 76 µM (inactive) | 44.5 µM (inactive) | 36.5 µM (inactive) | 0.286 µM (active) | 27.5 µM (inactive) | 48.6 µM (inactive) | 
13 | COC(=O)C(Cc1ccc(O)cc1)NC(=O)C(COCc1ccccc1)NC(=O)OCc1ccccc1 (stereo not given) (Cbz-Ser(Bn)-Tyr-OMe; configuration not given here) | 17.4 µM (inactive) | 17.1 µM (inactive) |  | 22.5 µM (inactive) | 4.06 µM (inactive) | 18.8 | 17.6 µM (inactive) | 19.4 µM (inactive) | 22.5 µM (inactive) | 19.4 µM (inactive) | 18.7 µM (inactive) | 20.9 µM (inactive) | 17 µM (inactive) | 17.4 µM (inactive) | 18.4 µM (inactive) | 16.9 µM (inactive) | 14.9 µM (inactive) | 18.8 µM (inactive) |  | 18.8 µM (inactive)
14 | Nc1c2c(=O)[nH]c(=O)c2c(N)c2c(=O)c3ccccc3c(=O)c12 | 2.24 µM (inactive) | 0.687 µM (active) |  | 3.17 µM (inactive) | 4.48 µM (inactive) | 1.36 | 1.65 µM (inactive) | 0.243 µM (active) | 3.35 µM (inactive) | 1.21 µM (inactive) | 3.57 µM (inactive) | 2.03 µM (inactive) | 0.179 µM (active) | 7.23 µM (inactive) | 1.52 µM (inactive) | 3.29 µM (inactive) |  | 1.69 µM (inactive) |  | 3.02 µM (inactive)
15 | COc1ccc2cc(/C=N\NC(=O)Nc3cccc4ccccc34)ccc2c1 | 23.9 µM (inactive) | 46.7 µM (inactive) |  | 30.6 µM (inactive) | > 100 µM (inactive) | 67.5 | 66.1 µM (inactive) | 33.4 µM (inactive) | 80 µM (inactive) | 14.5 µM (inactive) | 38.5 µM (inactive) | 33 µM (inactive) | 37.3 µM (inactive) |  | 36.6 µM (inactive) | 22 µM (inactive) | 11.1 µM (inactive) | 74 µM (inactive) |  | 27 µM (inactive)
16 | COc1cc2oc(-c3ccc(O)cc3)cc(=O)c2c(O)c1C1OC(CO)C(O)C(O)C1O (stereo not given) | > 100 µM (inactive) | > 100 µM (inactive) | > 100 µM (inactive) | > 100 µM (inactive) | > 100 µM (inactive) | > 100 | > 100 µM (inactive) | > 100 µM (inactive) | > 100 µM (inactive) | > 100 µM (inactive) |  | > 100 µM (inactive) | > 100 µM (inactive) | > 100 µM (inactive) | > 100 µM (inactive) | > 100 µM (inactive) | > 100 µM (inactive) | 11.5 µM (inactive) | > 100 µM (inactive) | 
